Laboratory results published in US9790219B2, “Compounds, compositions, and methods for increasing CFTR activity” (Proteostasis Therapeutics, Inc., priority 2014, dated 2017).

Legend:
ΔF508-CFTR [1] = target: T1, ΔF508-CFTR (Homo sapiens, UniProt P13569, DEL508-508); experiment: hBE equivalent current (Ieq) assay; assay type: cell-based; details: AUC of equivalent chloride current, primary hBE homozygous ΔF508, 24 h treatment
T1 construct: Primary lung epithelial cells homozygous for the Cystic Fibrosis-causing ΔF508 mutation; endogenous in cells; host or cells: primary human lung (bronchial) epithelial cells homozygous for ΔF508, differentiated at air-liquid interface
Procedure: Primary lung epithelial cells homozygous for the Cystic Fibrosis-causing ΔF508 mutation were differentiated for a minimum of 4 weeks in an air-liquid interface on Costar 24 well HTS filter plates prior to the equivalent current (Ieq) measurements. Cells were apically mucus-washed for 30 minutes 24 h prior to treatment with compounds. The basolateral media was removed and replaced with media containing the compound of interest diluted to its final concentration from DMSO stocks. Treated cells were incubated at 37° C. and 5% CO2 for 24 hours. At the end of the treatment period, the media was changed to the Ieq experimental solution for 30 minutes before the experiment and plates are maintained in a CO2-free incubator during this period. The plates containing the cells were then placed in pre-warmed heating blocks at 36° C.±0.5 for 15 minutes before measurements are taken. The transepithelial voltage (VT) and conductance (GT) were measured using a custom 24 channel current clamp (TECC-24) with 24 well electrode manifold. The Ieq assay measurements were made following additions with standardized time periods: • 1. The baseline VT and GT values were measured for approximately 20 minutes. • 2. Benzamil was added to block ENaC for 15 minutes. • 3. Forskolin plus VX-770 were added to maximally activate ΔF508-CFTR for 27 minutes. • 4. Bumetanide was added to inhibit the NaK2Cl cotransporter and shut-off secretion of chloride.
The activity data captured was the area under the curve (AUC) for the traces of the equivalent chloride current. The AUC was collected from the time of the forskolin/VX-770 addition until the inhibition by bumetanide addition. Correction in response to compound treatment was scored as the increase in the AUC for compound-treated samples over that of vehicle-treated samples. The results are shown below in Table 2 (++indicates activity ≧25% run at 10 uM of VX-809 at 1 uM; +indicates activity 10 to <25% run at 10 uM of VX-809 at 1 uM; ** indicates activity ≧200% of VX-809 (1 uM) with compound at 10 uM and VX-809 at 1 uM; * indicates activity 100-200% of VX-809 (1 uM) with compound at 10 uM and VX-809 at 1 uM)

ΔF508-CFTR [2] = target: T1, ΔF508-CFTR; experiment: Ussing measurements; assay type: cell-based; details: CFTRinh-172 inhibitable short-circuit current, primary hBE homozygous ΔF508, 24 h treatment
Procedure: As discussed above, Ussing measurements can be used to measure CFTR activity. In this method, primary lung epithelial cells (hBEs) homozygous for the Cystic Fibrosis-causing ΔF508 mutation are differentiated for a minimum of 4 weeks in an air-liquid interface on SnapWell filter plates prior to the Ussing measurements. Cells are apically mucus-washed for 30 minutes prior to treatment with compounds. The basolateral media is removed and replaced with media containing the compound of interest diluted to its final concentration from DMSO stocks. Treated cells are incubated at 37° C. and 5% CO2 for 24 hours. At the end of the treatment period, the cells on filters are transferred to the Ussing chamber and equilibrated for 30 minutes. The short-circuit current is measured in voltage clamp-mode (Vhold=0 mV), and the entire assay is conducted at a temperature of 36° C.-36.5° C. Once the voltages stabilized, the chambers are clamped, and data is recorded by pulse readings every 5 seconds. Following baseline current stabilization, the following additions can be applied and the changes in current and resistance of the cells can be monitored: • 1. Benzamil to the apical chamber to inhibit ENaC sodium channel. • 2. Forskolin to both chambers to activate ΔF508-CFTR by phosphorylation. • 3. Genistein to both chambers to potentiate ΔF508-CFTR channel opening. • 4. CFTRinh-172 to the apical chamber to inhibit ΔF508-CFTR Cl-conductance.
The inhibitable current (that current that is blocked by CFTRinh-172) is measured as the specific activity of the ΔF508-CFTR channel, and increases in response to compound in this activity over that observed in vehicle-treated samples are identified as the correction of ΔF508-CFTR function imparted by the compound tested.

[3] = compound alone at 10 uM, relative to VX-809 at 1 uM
[4] = compound at 10 uM together with VX-809 at 1 uM, relative to VX-809 (1 uM)

T1 sequence (P13569 with tags, fused parts or gaps DEL508-508): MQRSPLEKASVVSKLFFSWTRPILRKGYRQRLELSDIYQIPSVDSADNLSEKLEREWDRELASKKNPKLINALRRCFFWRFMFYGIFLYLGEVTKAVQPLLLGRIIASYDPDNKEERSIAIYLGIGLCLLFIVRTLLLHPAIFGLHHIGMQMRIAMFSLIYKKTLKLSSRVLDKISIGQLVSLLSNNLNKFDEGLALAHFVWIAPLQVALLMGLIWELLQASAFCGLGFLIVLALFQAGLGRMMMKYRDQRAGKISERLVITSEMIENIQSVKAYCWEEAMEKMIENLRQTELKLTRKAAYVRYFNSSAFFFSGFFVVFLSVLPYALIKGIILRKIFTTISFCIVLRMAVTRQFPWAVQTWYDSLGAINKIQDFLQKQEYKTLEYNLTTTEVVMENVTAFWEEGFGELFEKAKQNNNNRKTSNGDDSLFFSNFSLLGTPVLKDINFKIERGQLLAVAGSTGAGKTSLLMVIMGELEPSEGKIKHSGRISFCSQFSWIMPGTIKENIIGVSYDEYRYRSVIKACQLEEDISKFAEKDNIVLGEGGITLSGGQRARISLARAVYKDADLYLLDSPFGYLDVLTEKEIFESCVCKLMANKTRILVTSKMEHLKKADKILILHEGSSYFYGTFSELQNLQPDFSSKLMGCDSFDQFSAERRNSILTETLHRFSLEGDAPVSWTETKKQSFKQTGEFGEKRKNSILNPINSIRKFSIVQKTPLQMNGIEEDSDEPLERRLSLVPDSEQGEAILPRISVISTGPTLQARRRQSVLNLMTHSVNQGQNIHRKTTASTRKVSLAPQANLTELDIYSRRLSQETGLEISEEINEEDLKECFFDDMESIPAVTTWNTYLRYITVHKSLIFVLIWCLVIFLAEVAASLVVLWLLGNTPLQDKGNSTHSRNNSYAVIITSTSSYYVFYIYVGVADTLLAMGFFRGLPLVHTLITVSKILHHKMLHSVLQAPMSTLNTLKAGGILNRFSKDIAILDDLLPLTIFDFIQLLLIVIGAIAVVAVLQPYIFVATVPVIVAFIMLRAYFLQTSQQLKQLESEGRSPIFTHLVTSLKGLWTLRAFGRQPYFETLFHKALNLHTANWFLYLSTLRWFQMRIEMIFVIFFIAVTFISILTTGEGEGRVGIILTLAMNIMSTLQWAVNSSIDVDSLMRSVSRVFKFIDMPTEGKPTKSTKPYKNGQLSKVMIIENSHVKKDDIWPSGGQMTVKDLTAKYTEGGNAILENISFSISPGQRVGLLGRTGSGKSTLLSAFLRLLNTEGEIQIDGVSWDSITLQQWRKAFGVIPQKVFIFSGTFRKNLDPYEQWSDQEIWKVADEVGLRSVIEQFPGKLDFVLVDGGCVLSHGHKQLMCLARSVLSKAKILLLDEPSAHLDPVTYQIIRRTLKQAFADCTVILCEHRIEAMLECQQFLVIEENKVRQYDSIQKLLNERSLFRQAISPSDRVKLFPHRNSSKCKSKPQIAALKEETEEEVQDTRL

SMILES | Ieq Activity (ΔF508-CFTR [1]; [3]) | Ieq Activity (ΔF508-CFTR [1]; [4]) | Ussing (ΔF508-CFTR [2]; [3]) | Ussing (ΔF508-CFTR [2]; [4])
O=C(NCCc1nnc(CO)o1)c1cc(-c2ccccc2)on1 [Compound A1, N-(2-(5-(hydroxymethyl)-1,3,4-oxadiazol-2-yl)ethyl)-5-phenylisoxazole-3-carboxamide] | ++ (++indicates activity ≧25% run at 10 uM of VX-809 at 1 uM) | ** (** indicates activity ≧200% of VX-809 (1 uM) with compound at 10 uM and VX-809 at 1 uM) | ++ (++indicates activity ≧25% run at 10 uM of VX-809 at 1 uM) | ** (** indicates activity ≧200% of VX-809 (1 uM) with compound at 10 uM and VX-809 at 1 uM)
O=C(NCCc1nnc([C@@H](O)CO)s1)c1cc(-c2ccccc2)on1 [Compound A21, (S)-N-(2-(5-(1,2-dihydroxyethyl)-1,3,4-thiadiazol-2-yl)ethyl)-5-phenyl isoxazole-3-carboxamide] |  | ** (** indicates activity ≧200% of VX-809 (1 uM) with compound at 10 uM and VX-809 at 1 uM) |  | ** (** indicates activity ≧200% of VX-809 (1 uM) with compound at 10 uM and VX-809 at 1 uM)
C[C@H](O)c1nnc(CCNC(=O)c2cc(-c3ccccc3)on2)o1 [Compound A18, (S)-N-(2-(5-(1-hydroxyethyl)-1,3,4-oxadiazol-2-yl)ethyl)-5-phenylisoxazole-3-carboxamide] |  | ** (** indicates activity ≧200% of VX-809 (1 uM) with compound at 10 uM and VX-809 at 1 uM) |  | ** (** indicates activity ≧200% of VX-809 (1 uM) with compound at 10 uM and VX-809 at 1 uM)
O=C(NCCc1nnc([C@H](O)CO)o1)c1cc(-c2ccccc2)on1 [Compound A19, (R)-N-(2-(5-(1,2-dihydroxyethyl)-1,3,4-oxadiazol-2-yl)ethyl)-5-phenylisoxazole-3-carboxamide] |  | ** (** indicates activity ≧200% of VX-809 (1 uM) with compound at 10 uM and VX-809 at 1 uM) |  | ** (** indicates activity ≧200% of VX-809 (1 uM) with compound at 10 uM and VX-809 at 1 uM)
O=C(NCCc1nnc([C@@H](O)CO)o1)c1cc(-c2ccccc2)on1 [Compound A22, (S)-N-(2-(5-(1,2-dihydroxyethyl)-1,3,4-oxadiazol-2-yl)ethyl)-5-phenyl isoxazole-3-carboxamide carboxamide] |  | ** (** indicates activity ≧200% of VX-809 (1 uM) with compound at 10 uM and VX-809 at 1 uM) |  | ** (** indicates activity ≧200% of VX-809 (1 uM) with compound at 10 uM and VX-809 at 1 uM)
O=C(NCCc1nnc([C@H](O)CO)s1)c1cc(-c2ccccc2)on1 [Compound A20, (R)-N-(2-(5-(1,2-dihydroxyethyl)-1,3,4-thiadiazol-2-yl)ethyl)-5-phenylisoxazole-3-carboxamide] |  | ** (** indicates activity ≧200% of VX-809 (1 uM) with compound at 10 uM and VX-809 at 1 uM) |  | ** (** indicates activity ≧200% of VX-809 (1 uM) with compound at 10 uM and VX-809 at 1 uM)
O=C(NCCc1nnc(CO)s1)c1cc(-c2ccccc2)on1 [Compound A2, N-(2-(5-(hydroxymethyl)-1,3,4-thiadiazol-2-yl)ethyl)-5-phenylisoxazole-3-carboxamide] | ++ (++indicates activity ≧25% run at 10 uM of VX-809 at 1 uM) | ** (** indicates activity ≧200% of VX-809 (1 uM) with compound at 10 uM and VX-809 at 1 uM) | ++ (++indicates activity ≧25% run at 10 uM of VX-809 at 1 uM) | ** (** indicates activity ≧200% of VX-809 (1 uM) with compound at 10 uM and VX-809 at 1 uM)
